Results reported in patent US20250186403A1 (ARIZONA BOARD OF REGENTS ON BEHALF OF THE UNIVERSITY OF …, priority 2022, published 2025).
Where “and” joins values, the source holds several entries; their conditions need not be identical. Identical values can stand only once. Like-named read-outs stand apart in the source and are kept apart here.

Tests used:
Pharmacokinetics in mice = assay type: in vivo; details: 40 mg/kg BW oral gavage, male C57BL/6 mice, plasma
Method: Blood samples were collected at 0, 0.5, 1, 2, 4, 8, 12, 16, 24, and 36 h after oral gavage. […] Other PK parameters are in Table 4. The values represent means±SD. […] On day 0, mice were infected with H99 (10^7 cells/mice) intranasally or mock-infected with PBS. Mice were euthanized on day 5, and lungs were dissected out, homogenized in RPMI-1640-MOPS media, and plated onto Sabouraud dextrose agar plates containing antibiotics. Plates were incubated at 30° C. for 72 h, and colonies were counted. […] VC: Vehicle control, (90% corn oil, 10% DMSO). Dpi: Days post-infection. CFU: Colony-forming units.
Pharmacokinetics in mice: C57BL/6 mice (male, 2-3 months old) were obtained from breeding stocks maintained at the University of Arizona. All mice were housed under conditions of controlled temperature (22° C.) with the on-off light cycle, food, and water provided ad libitum and were fasted for 12 h before administration of the compound. […] Blood samples were collected from the tail vein using heparinized capillary tubes at 0, 0.5, 1, 2, 4, 8, 12, 16, 24, and 36 h after oral gavage. Plasma was separated and stored at −30° C. until use. For extraction of the compound, 5 μl of plasma from each mouse were mixed with 30 μL methanol and 10 μl of internal standard (IS; UAWJ102 50 ng/ml). The mixture was vortexed for 30 seconds and diluted with 760 µL Milli Q water, and loaded onto an ISOLUTER C18 SPE Columns (1 ml/100 mg, Biotage, Salem, NH) pre-conditioned with 1 ml methanol followed by 1 ml water, and the cartridge was then washed with 1 ml water. The analytes were finally eluted from the cartridges with 1 ml methanol containing 5% ammonia solution, dried with nitrogen, and reconstituted in 100 μl methanol.
The analyte was detected and quantified using LC-MS (Agilent 1290 UPLC system Agilent Technologies, Santa Clara, CA) and a Sciex Qtrap6500+ Mass Spectrometer (AB SCIEX, Framingham, MA). Analytes were separated on an EclipsePlus C18 column (2.1×50 mm, 1.8 μm, Agilent) at a temperature of 35° C., with mobile phase A containing 0.1% formic acid (v/v) in water and mobile phase B containing 0.1% formic acid (v/v) in methanol. Elution was at a flow rate of 0.2 mL/min as follows: 10% B (0-0.5 min), 10% B→95% B (0.5-3.5 min), 95% B (3.5-7 min), […] (7-7.1 min), 10% B (7.1-10 min). The MS was operated in the positive ion mode, using electrospray ionization. The ion spray voltage and temperature were set at 5000 V and 500° C., respectively. Curtain gas, ion source gas 1, and ion source gas 2 were set at 25, 50, 50 psi, respectively.

C. amylolentus = test: MIC by microdilution method; assay type: cell-based
Method: (§1) Serial double dilution of the CMN was done in the RPMI-MOPS medium. Freshly grown fungal culture from the SD agar plate was resuspended in sterile water and diluted to get 0.1 OD at 600 nm. […] The plates were incubated at 30° C. for 48 h. Plates were checked for growth by visual observation. For Afu, resazurin was added to 44 µM and incubated for 12 h at 37° C. before noting a change in color from blue to pink by live cells. MIC is defined as the minimum concentration at which there is no growth when observed visually.

C. neoformans (Cne-WT) = test: MIC by microdilution method; assay type: cell-based; details: Cryptococcus neoformans, 48 h
Method: as §1

[1] = tested on: C. neoformans (Cne-Mut), inteinless mutant strain; test: MIC by microdilution method; assay type: cell-based; details: Cryptococcus neoformans, 48 h
Method: as §1

C. gattii (NIH444) = test: MIC by microdilution method; assay type: cell-based; details: Cryptococcus gattii, visual, 48 h, 30° C.
Method: as §1

[2] = tested on: Cne-WT in RAW 264.7 macrophages; test: Phagocytosis assay (macrophage intracellular infection model); assay type: cell-based, Cryptococcus neoformans; details: for reduction of intracellular Cne in macrophages: 24 h, macrophage lysate
Method: FIGS. 1B, 1C, and 1D show phagocytosis assays. RAW 264.7 cells were seeded in 24 well plates and differentiated into macrophages using PMA. Media was replaced with fresh media containing opsonized Cne-WT and incubated at 37° C. for 8 h. Cells were washed 3 times with PBS to remove non-phagocytosed fungal cells. […] Culture supernatants were diluted and plated onto SD agar plates for tittering the fungal load. The cells were washed thrice with PBS and homogenized with a small homogenizer, diluted, and plated on SD agar plates. Colonies were counted after 72 h. […] Treatment groups were compared with unpaired Student's t-test. p<0.05 is considered significant. […] Insert: enlarged view of the phagocytosed Cne cells. The cells were permeabilized with methanol and stained with Giemsa stain. CFU: […] Cne: Cryptococcus neoformans.
Phagocytosis assay: Mouse monocyte/macrophage-like cells RAW 264.7 were seeded in the six-well plate in DMEM media with 10% FBS and incubated at 37° C. in a CO2 incubator. Once it reached 70% confluently, the cells were differentiated into macrophages by replacing the culture supernatant with fresh media containing 100 nM phorbol 12-myristate 13-acetate (PMA) and incubated at 37° C. for 48 h in a CO2 incubator. Differentiated cells in six-well plates were washed once with PBS to remove loosely bound cells. Cne-WT cells were grown overnight in the SD broth media and washed thrice in 0.1 mM PBS, opsonized with 20% human complement serum (Sigma, USA) and 20 μg glucuronoxylomannan specific antibody (clone 18B7, EMD Millipore, USA) by incubating at 37° C. for 30 min with rotating end to end. The Cne cells were washed thrice with PBS to remove unbound antibodies and serum components. The opsonized Cne cells were added to the macrophages at 1:10 ratio and incubated at 37° C. for 10 h. […] The fungal load in the media and the cells was estimated. For tittering, 100 μl of the culture supernatant was plated onto the SD-agar plates with tenfold dilutions. The cells were washed with PBS, scraped, and harvested in PBS, homogenized with a disposable homogenizer. A volume of 30 μl was mixed with 60 μl SD media and plated onto the SD agar plates. The plates were incubated at 30° C. for 72 h, and colonies were counted.

[3] = Cryptococcus neoformans, RAW264.7, 24 h, read-out: inhibition of released Cne

For `CNc1ccc2oc(C[C@H]3O[C@@]4(CC[C@H]3C)O[C@H]([C@H](C)C(=O)c3ccc[nH]3)[C@H](C)C[C@H]4C)nc2c1C(=O)O` [CMN, calcimycin], the t½ (Pharmacokinetics in mice; mean ± S.D. n = 5) was 7.2 h, the Tmax (Pharmacokinetics in mice; male, C57BL/6, mouse, po, 40 mg/kg, mean ± S.D. n = 5) was about 10 h and the half-life (Pharmacokinetics in mice; male, C57BL/6, mouse, po, 40 mg/kg, mean ± S.D. n = 5, read-out: t½ (converted)) was 7.6 h. The Cmax (Pharmacokinetics in mice; mouse, mean ± S.D. n = 5) was 301 ng/mL, the MIC (C. amylolentus; C. amylolentus, visual, 48 h, 30° C.) was > 26.1 µg/mL and > 50 µM and the growth inhibition (C. amylolentus; natural inteinless cryptococcal sp. Cam) was “no inhibition was observed”. For the same molecule, the MIC (C. neoformans (Cne-WT)) was 1.5 µg/mL, the MIC (C. neoformans (Cne-WT); Cne-WT, visual, 30° C., read-out: MIC) was 3 µM and the MIC [1] was 25.1 µg/mL and 48 µM. The MIC (C. gattii (NIH444)) was 1.5 µg/mL and 3 µM, the “reduction of intracellular Cne in macrophages” value (from here on “reduction of intracellular Cne”) ([2]; 0.3 μg/ml CMN) was 23% and the “reduction of intracellular Cne” value ([2]; 0.6 μg/ml CMN) was 50%. For the same molecule, the “reduction of intracellular Cne” value ([2]; CMN) was 72%, the inhibition at 0.3 µg/mL [2, 3] was 41% and the inhibition at 0.6 µg/mL [2, 3] was 59%. The inhibition at 1.3 µg/mL [2, 3] was 69%, the “released Cne (significance)” value ([2]; at 0.3 μg/ml) was “significantly reduced” and the “growth of intracellular Cne in macrophages (significance)” value ([2]; at 0.6 μg/ml) was “significantly reduced”.
